# Source: patent US6979686B1, “Substituted pyrazoles as p38 kinase inhibitors” (Pharmacia Corporation, priority 2001, dated 2005)
# Read-outs that look alike come from different tables or passages of the source.
# Target: T1, human p38 kinase alpha (Homo sapiens, UniProt Q16539)
# T1 construct: GST (N, cleaved yes); made in house; host or cells: E. coli DH10B
# Assay: p38 kinase in vitro assay, phosphorylation of biotinylated PHAS-I with 32P-ATP
# Format: biochemical
# Protocol: The coding region of the human p38a cDNA was obtained by PCR-amplification from RNA isolated from the human monocyte cell line THP.1. […] Random primer, dNTP's and Superscript™ reagents were all purchased from Life-Technologies, Gaithersburg, Mass. The reaction was incubated at 42° C. for 1 hour. Amplification of p38 cDNA was performed by aliquoting 5 μl of the reverse transcriptase reaction into a 100 μl PCR reaction containing the following: 80 μl dH2O, 2 μl 50 mM DNTP's, 1 μl each of forward and reverse primers (50 pmol/μl), 10 μl of 10×buffer and 1 μl Expand™ polymerase (Boehringer Mannheim). The PCR primers incorporated BamHI sites onto the 5′ and 3′ end of the amplified fragment, and were purchased from Genosys. […] The PCR amplification was carried out in a DNA Thermal Cycler (Perkin Elmer) by repeating 30 cycles of 94° C. for 1 minute, 60° C. for 1 minute and 68° C. for 2 minutes. After amplification, excess primers and unincorporated dNTP's were removed from the amplified fragment with a Wizard™ PCR prep (Promega) and digested with BamHI (New England Biolabs). The BamHI digested fragment was ligated into BamHI digested PGEX 2T plasmid DNA (PharmaciaBiotech) using T-4 DNA ligase (New England Biolabs) as described by T. Maniatis, Molecular Cloning: A Laboratory Manual, 2nd ed. […] The ligation reaction was transformed into chemically competent E. coli DH10B cells purchased from Life-Technologies following the manufacturer's instructions. Plasmid DNA was isolated from the resulting bacterial colonies using a Promega Wizard™ miniprep kit.
# Expression of Human p38a:
# Overnight cultures were grown in-Luria Broth (LB) containing […] ampicillin. The next day, 500 ml of fresh LB was inoculated with 10 ml of overnight culture, and grown in a 2 liter flask at 37° C. with constant shaking until the culture reached an absorbance of 0.8 at 600 nm. Expression of the fusion protein was induced by addition of isopropyl b-D-thiogalactosidse (IPTG) to a final concentration of 0.05 mM. The cultures were shaken for three hours at room temperature, and the cells were harvested by centrifugation. The cell pellets were stored frozen until protein purification.
# Purification of p38 Kinase-α:
# All chemicals were from Sigma Chemical Co. unless noted. Twenty grams of E. coli cell pellet collected from five 1 L shake flask fermentations was resuspended in a volume of PBS (140 mM NaCl, 2.7 mM KCl, 10 mM Na2HPO4, 1.8 mM KH2PO4, pH 7.3) up to 200 ml. The cell suspension was adjusted to 5 mM DTT with 2 M DTT and then split equally into five 50 ml Falcon conical tubes. The cells were sonnicated (Ultrasonics model W375) with a 1 cm probe for 3×1 minutes (pulsed) on ice. Lysed cell material was removed by centrifugation (12,000×g, 15 minutes) and the clarified supernatant applied to glutathione-sepharose resin (Pharmacia).
# Glutathione-sepharose Affinity Chromatography:
# The resin was collected by centrifugation (600×g, 5 min) and washed with 2×150 ml PBS/1% Triton X-100, followed by 4×40 ml PBS. To cleave the p38 kinase from the GST-p38 fusion protein, the glutathione-sepharose resin was resuspended in 6 ml PBS containing 250 units thrombin protease (Pharmacia, specific activity>7500 units/mg) and mixed gently for 4 hours at room temperature. The glutathione-sepharose resin was removed by centrifugation (600×g, 5 min) and washed 2×6 ml with PBS. The PBS wash fractions and digest supernatant containing p38 kinase protein were pooled and adjusted to 0.3 mM PMSF.
# Mono O Anion Exchange Chromatography:
# The thrombin-cleaved p38 kinase was further purified by FPLC-anion exchange chromatography.
# [1] = in vitro P38-alpha kinase, read-out: P38 alpha kinase IC50
# [2] = in vitro P38-alpha kinase inhibition, read-out: P38 alpha kinase IC50
# T1 sequence (Q16539 whole entry): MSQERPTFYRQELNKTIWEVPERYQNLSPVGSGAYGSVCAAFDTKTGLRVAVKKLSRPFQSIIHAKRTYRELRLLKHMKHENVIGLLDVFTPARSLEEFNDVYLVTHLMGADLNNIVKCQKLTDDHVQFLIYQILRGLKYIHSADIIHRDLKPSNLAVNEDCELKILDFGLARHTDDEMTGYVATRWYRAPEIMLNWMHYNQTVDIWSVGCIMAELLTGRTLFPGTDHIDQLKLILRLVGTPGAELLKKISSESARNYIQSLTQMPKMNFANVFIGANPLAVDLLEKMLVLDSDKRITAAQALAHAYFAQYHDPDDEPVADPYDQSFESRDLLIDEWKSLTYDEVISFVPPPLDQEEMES
Compound,IC50 [1],IC50 [2],also measured
Cc1c(-c2ccncc2)c(-c2ccc(F)cc2)nn1CC(=O)NCCCN(C)C [Example B-2304],1410 nM,–,–
O=S(=O)(c1ccccc1)c1ccc(S(=O)(=O)N2CCC(c3[nH]nc(-c4ccc(F)cc4)c3-c3ccncc3)CC2)s1 [Example B-1441],1950 nM,–,–
Cn1cnc(S(=O)(=O)NCCc2[nH]nc(-c3ccc(F)cc3)c2-c2ccncc2)c1 [Example B-1114],–,69 nM,–
CC(NC(=O)c1ccc(F)cc1)c1[nH]nc(-c2ccc(F)cc2)c1-c1ccncc1 (centres unmarked) [Example B-0533],–,1230 nM,–
Cc1c(-c2ccncc2)c(-c2ccc(F)cc2)nn1CC(=O)NCCc1cccnc1 [Example B-2291],19 nM,–,–
CCN(CC)C(=O)NCCCc1[nH]nc(-c2ccc(F)cc2)c1-c1ccncc1 [Example B-1225],–,–,P38 alpha kinase % inhib @ conc. (@ 1.0 uM): 89.0% @
CC(C)c1cc(C(C)C)c(C(=O)NCCCc2[nH]nc(-c3ccc(F)cc3)c2-c2ccncc2)c(C(C)C)c1 [Example B-1326],92 nM,–,–
C#CCOC(=O)N1CCC(c2[nH]nc(-c3ccc(F)cc3)c2-c2ccncc2)CC1 [Example B-1427],< 100 nM,–,–
O=C(NCCc1[nH]nc(-c2ccc(F)cc2)c1-c1ccncc1)c1ccc(F)c(C(F)(F)F)c1 [Example B-1140],–,1680 nM,–
COC(=O)[C@H](COCc1ccccc1)NC(=O)Cn1nc(-c2ccc(F)cc2)c(-c2ccncc2)c1C [Example B-2359],–,–,P38 alpha kinase % inhib @ conc. (@ 10.0 uM): 76.0% @
CC(=O)OC(C)(C)C(=O)NC(Cc1ccccc1)c1[nH]nc(-c2ccc(F)cc2)c1-c1ccncc1 (centres unmarked) [Example B-0834],–,1250 nM,–
CC(NS(=O)(=O)c1cccs1)c1[nH]nc(-c2ccc(F)cc2)c1-c1ccncc1 (centres unmarked) [Example B-0575],–,32 nM,–
CCN(CC)C(=O)N[C@H](C)c1[nH]nc(-c2ccc(F)cc2)c1-c1ccncc1 [Example B-0420],–,830 nM,–
CC(NS(=O)(=O)c1ccc(F)cc1Cl)c1[nH]nc(-c2ccc(F)cc2)c1-c1ccncc1 (centres unmarked) [Example B-0626],–,< 100 nM,–
O=S(=O)(NCCc1[nH]nc(-c2ccc(F)cc2)c1-c1ccncc1)c1cc(Cl)ccc1Cl [Example B-1066],–,< 100 nM,–
O=C(NCCCc1[nH]nc(-c2ccc(F)cc2)c1-c1ccncc1)c1c(F)cccc1F [Example B-1352],13 nM,–,–
CC(NC(=O)c1ccc(C(F)(F)F)cc1F)c1[nH]nc(-c2ccc(F)cc2)c1-c1ccncc1 (centres unmarked) [Example B-0685],–,15400 nM,–
COCC(=O)NCc1[nH]nc(-c2ccc(F)cc2)c1-c1ccncc1 [Example B-0003],–,–,"inhibition at 1 µM (@ 1.0 uM, read-out: P38 alpha kinase % inhib @ conc.): 70%"
CC(NS(=O)(=O)c1cc(Cl)c(Cl)s1)c1[nH]nc(-c2ccc(F)cc2)c1-c1ccncc1 (centres unmarked) [Example B-0629],–,200 nM,–
O=C(c1ccc(C(F)(F)F)cc1F)N1CCC(c2[nH]nc(-c3ccc(F)cc3)c2-c2ccncc2)CC1 [Example B-1406],1390 nM,–,–
O=C(NC(Cc1ccccc1)c1[nH]nc(-c2ccc(F)cc2)c1-c1ccncc1)c1ccc(F)cc1 (centres unmarked) [Example B-0832],–,1490 nM,–
Cc1noc(C)c1C(=O)NCc1[nH]nc(-c2ccc(F)cc2)c1-c1ccncc1 [Example B-0304],550 nM,–,–
CC(NC(=O)c1cccc(F)c1F)c1[nH]nc(-c2ccc(F)cc2)c1-c1ccncc1 (centres unmarked) [Example B-0695],–,230 nM,–
O=C(NCCCc1[nH]nc(-c2ccc(F)cc2)c1-c1ccncc1)c1cccc2ccccc12 [Example B-1329],660 nM,–,–
O=S(=O)(NC(Cc1ccccc1)c1[nH]nc(-c2ccc(F)cc2)c1-c1ccncc1)c1ccccc1F (centres unmarked) [Example B-0759],–,300 nM,–
Cc1cccc(C(=O)NCCc2[nH]nc(-c3ccc(F)cc3)c2-c2ccncc2)c1 [Example B-1143],–,170 nM,–
Cc1ccc(F)cc1S(=O)(=O)NCCCc1[nH]nc(-c2ccc(F)cc2)c1-c1ccncc1 [Example B-1256],120 nM,–,–

Compound,IC50 [1],IC50 [2],also measured
O=C(NCCCc1[nH]nc(-c2ccc(F)cc2)c1-c1ccncc1)c1cc2ccccc2s1 [Example B-1325],270 nM,–,–
Cc1[nH]nc(-c2cccc(F)c2C)c1-c1ccncc1 [Example A-33],–,–,"IC50 (activated human p38 kinase alpha, PHAS-I substrate, 50 μM unlabeled ATP, read-out: p38 kinase IC50): 2500 nM"
O=S(=O)(c1ccc(Cl)s1)N1CCC(c2[nH]nc(-c3ccc(F)cc3)c2-c2ccncc2)CC1 [Example B-1438],2010 nM,–,–
CCCCOc1ccc(S(=O)(=O)NC(C)c2[nH]nc(-c3ccc(F)cc3)c2-c2ccncc2)cc1 (centres unmarked) [Example B-0456],–,1310 nM,–
O=S(=O)(NCCc1[nH]nc(-c2ccc(F)cc2)c1-c1ccncc1)c1ccccc1 [Example B-1014],–,–,P38 alpha kinase % inhib @ conc. (uM) (@ 1.0 uM): 88.0% @
O=S(=O)(NCCCc1[nH]nc(-c2ccc(F)cc2)c1-c1ccncc1)c1ccccc1C(F)(F)F [Example B-1263],1050 nM,–,–
CC(NC(=O)c1c(F)cccc1C(F)(F)F)c1[nH]nc(-c2ccc(F)cc2)c1-c1ccncc1 (centres unmarked) [Example B-0686],–,420 nM,–
CC(NC(=O)c1cnc2ccccc2n1)c1[nH]nc(-c2ccc(F)cc2)c1-c1ccncc1 (centres unmarked) [Example B-0561],–,2070 nM,–
Cc1cc(C)c(S(=O)(=O)NCCCc2[nH]nc(-c3ccc(F)cc3)c2-c2ccncc2)c(C)c1 [Example B-1244],260 nM,–,–
O=S(=O)(C=Cc1ccccc1)NCCCc1[nH]nc(-c2ccc(F)cc2)c1-c1ccncc1 [Example B-1193],–,–,P38 alpha kinase % inhib @ conc. (uM) (@ 1.0 uM): 69.0% @
Cc1c(-c2ccncc2)c(-c2ccc(F)cc2)nn1CC(=O)NCc1ccccn1 [Example B-2281],810 nM,–,–
CCCN(CCC)CC(C)NC(=O)Cn1nc(-c2ccc(F)cc2)c(-c2ccncc2)c1C (centres unmarked) [Example B-2358],–,–,P38 alpha kinase % inhib @ conc. (@ 10.0 uM): 17.0% @
Cc1noc(C)c1S(=O)(=O)NC(C)c1[nH]nc(-c2ccc(F)cc2)c1-c1ccncc1 (centres unmarked) [Example B-0653],–,2010 nM,–
CC(C)NC(=O)NC(C)c1[nH]nc(-c2ccc(F)cc2)c1-c1ccncc1 (centres unmarked) [Example B-0578],–,1880 nM,–
Cc1c(C)c(S(=O)(=O)NCCc2[nH]nc(-c3ccc(F)cc3)c2-c2ccncc2)c(C)c2c1OC(C)(C)CC2 [Example B-1110],–,470 nM,–
Cc1ccc(F)cc1S(=O)(=O)NC(C)c1[nH]nc(-c2ccc(F)cc2)c1-c1ccncc1 (centres unmarked) [Example B-0628],–,23 nM,–
Cc1cccc(NC(=O)Cn2nc(-c3ccc(F)cc3)c(-c3ccncc3)c2C)c1 [Example B-2424],–,–,"P38 alpha kinase IC50, uM or % inhib @ conc. (uM): % inhib (@ 10.0 uM): 86.0% @"
O=S(=O)(NCCc1[nH]nc(-c2ccc(F)cc2)c1-c1ccncc1)c1ccc2ccccc2c1 [Example B-1103],–,94 nM,–
CC(C)NC(=O)NCCc1[nH]nc(-c2ccc(F)cc2)c1-c1ccncc1 [Example B-1029],–,–,P38 alpha kinase % inhib @ conc. (uM) (@ 1.0 uM): 69.0% @
CC(NC(=O)Nc1ccc(F)cc1)c1[nH]nc(-c2ccc(F)cc2)c1-c1ccncc1 (centres unmarked) [Example B-0583],–,3930 nM,–
CCCCS(=O)(=O)NC(Cc1ccccc1)c1[nH]nc(-c2ccc(F)cc2)c1-c1ccncc1 (centres unmarked) [Example B-0716],–,4600 nM,–
C=CCNC(=O)NC(C)c1[nH]nc(-c2ccc(F)cc2)c1-c1ccncc1 (centres unmarked) [Example B-0589],–,1710 nM,–
O=S(=O)(NCCCc1[nH]nc(-c2ccc(F)cc2)c1-c1ccncc1)c1cccc2cnccc12 [Example B-1295],79 nM,–,–
Cc1c(-c2ccncc2)c(-c2ccc(F)cc2)nn1CC(=O)Nc1cccc(F)c1 [Example B-2429],–,–,"P38 alpha kinase IC50, uM or % inhib @ conc. (uM): % inhib (@ 10.0 uM): 92.0% @"
O=C(NCCc1[nH]nc(-c2ccc(F)cc2)c1-c1ccncc1)c1cccs1 [Example B-1156],–,270 nM,–
Cc1ccccc1C(=O)NCCCc1[nH]nc(-c2ccc(F)cc2)c1-c1ccncc1 [Example B-1321],470 nM,–,–
